Here are results for one compound from patent EP0462621A2, “Use of particular compounds for manufacture of pharmaceutical formulations for treatment against various parasites, mycoplasmas, other indications and other infections” (Prendergast, Patrick Thomas, priority 1990, dated 1991).

Each structure is given as a SMILES string.

The test system of one experiment is L donovani. Briefly: Amastigotes (AM) in cell lines, in-vitro. Further: key: - no/poor activity,; + fair/moderate activity,; ++ good/excellent activity. It counts as cell-based. Conditions: Ld., Amastigote. The source says:
(§1) Amastigotes of Leishmania can be cultivated in a wide range of mammalian cells, some of which may be used in in-vitro screens. These include (1) a Sticker dog sarcoma (fibroblast) cell line, (2) transformed rodent macrophage cell lines, (3) primary isolated mouse peritoneal macrophages (MP mo), and (4) human monocyte-derived macrophages (HM mo). The methods are similar for all models. Amastigote or promastigote infected cells are maintained in a medium containing the drug for 4-7 days, at 37 C for L. donovani and 33-35 C for L. major and L. mexicana. Drug activity is then assessed by counting (I) the number of infected host cells and/or (II) the number of amastigotes/100 host cells.
(§2) In-vitro and in-vivo models were used to test activities of a selection of many compounds. Those activities are summarized in Tables 1-3, showing variation between systems and species. Activities measured in the MP mo and HM mo models have shown the best correlation with results obtained in hamster and mouse models.

Another experiment concerns L major/L mexicana. Kind of experiment: Amastigotes (AM) in cell lines, in-vitro. Further: key: - no/poor activity,; + fair/moderate activity,; ++ good/excellent activity. Format: cell-based. Conditions: Lm., Amastigote.
Excerpt: as §1, §2

Another experiment has as its system T lymphocytes. Briefly: Lymphocyte blastogenesis assay, T lymphocytes (PHA). Format: cell-based, human. As to the method: (§3) T and B lymphocytes from normal human donors were incubated for 30 minutes at various dose levels of the compounds indicated. The lymphocytes were added in triplicate wells in gentamicin and phytohemagglutinin (PHA) (a T cell mitogen), pokeweed mitogen (PWM) (a B cell mitogen) and allogeneic mononuclear cells (mixed leukocyte cultures; MLC) or media containing the above additives. The lymphocyte blastogenesis assay is described in detail below.
(§4) The data are represented as the mean of the three replicates. The results are presented in Charts la(e) (i) and la(e) (ii) (Figs. 1 and 2). […] A reduction of both T lymphocytes' abilities to proliferate was obtained when 100 u.M or greater concentrations of IPA was added to the cell cultures. Proliferative activity of T lymphocytes by 25% at the 30 u.M concentration of IPA in the experiment.
(§5) • 1. Mononuclear cells are separated from whole blood by differential centrifugation using a synthetic separation medium, or are thawed from a cryopreserved preparation. The cells are washed and resuspended in media (RPMI - 1640, L-Glutamine 2mM, Herpes Buffer 25mM, Gentamicin 50 ug/ml, Human AB Serum-heat inactivated (56°, 30°) 20%). • 2. A viable cell count is determined. • 3. Cell concentration is adjusted to 2 x 10^6 /ml in media. • 4. The cell suspension is added to wells of a 96-well flat bottom plate in 0.1 ml aliquots (2 x 10^5 cells). • 5. The selected mitogens and/or antigens (in media without serum) are added to the cells in the wells also in 0.1 ml aliquots. • 6. The cultures are incubated for 3-7 days (depending upon the mitogen or antigen) at 37° C in a humidified 5% C02 atmosphere. • 7. Six to eight hours before termination of cultures 0.05 ml (1 µCi) of ^3HTdR sp. act 6.7 Ci/mM (20 µCi/ml stock) is added to each well. • 8. At termination of cultures the cells are harvested onto strips of scintillation-grade fibreglass paper using a multiple sample harvester. • 9. Perforated disks from the fibreglass paper of the harvested cultures are placed each into scintillation vials to which is then added 5 ml of toluene based scintillation cocktail. • 10. The vials are counted in a liquid scintillation counter for one minute where the amount of incorporated ^3HTdR is determined.
(§6) net CPM = xCPM of mitogen/antigen cultures - xCPM of media cultures.

In another experiment the test system is B lymphocytes. Briefly: Lymphocyte blastogenesis assay, B lymphocytes (PWM). It counts as cell-based, human. As to the method:
as §3, §4, §5, §6

For the next experiment, the system named is HIV-1. Kind of experiment: In vitro HIV-1 infection of H9 cells, HIV-1 P24 antigen capture test. It counts as cell-based. As to conditions: doses of 3.75 µM or higher, Figure 13. Here is the method: In vitro infection of H9 cells was carried out as described previously. Briefly, 5x10^6 H9 cells were treated with DEAE-dextran (25 µg/mt) for 20 min. Cells were then infected with 1 ml of cell free HIV-1 (1 X1 05 RT unit) for 1 hr at 37° C. Cells were then washed and incubated for 12 days in the absence or presence of various concentrations of IPA. Every 3-4 days, the medium was replaced with fresh medium containing appropriate concentrations of drug. At various days following infection, the presence of HIV-1 in the supernatant was monitored by measuring HIV-1 P24 using the antigen capture test (DuPont@, Wilmington, DE).
An investigation of the effect of IPA on in-vitro HIV-1 infection of H9 cells, a T cell line, was performed. The drug was added following 1 hr adsorption of the virus, and was maintained in the culture medium throughout the incubation period.

The nature of experiment [1]: Case study one: AIDS patient treated with IPA. Format: in vivo, human. As to conditions: IPA from February 1989. Here is the method:
A case study of an AIDS patient one, was conducted. Patient one began treatment with IPA in February 1989, while in a nearly moribund condition, suffering from depression, exhaustion, bronchial infection, severe diarrhoea, severe weight loss (weight in February was 98 lbs.), complete loss of appetite and spiked fever. […] By March 21, 1989, patient one stated that they felt cured and abruptly (unilaterally) stopped taking IPA, resulting in dramatic deterioration of their condition. In May, 1989, patient one resumed IPA therapy, and experienced dramatic recovery. At the end of May, 1989, patient one again stopped taking IPA, and their condition again deteriorated. Again IPA treatment was restarted, and patient one's condition improved. In early June, 1989, patient one again stopped IPA therapy and died several weeks later.
The study concluded that patient one would have apparently enjoyed appreciable therapeutic benefits from IPA if they had conscientiously and continuously received IPA medication.

Another experiment deals with cytomegilovirus. Briefly: M413 cells, CMV. It counts as cell-based, cytomegalovirus (CMV). As to the method:
Confluent monolayers of M413 cells (a type of dipliod human fibroblast cells) in 48 well microtiter plates were used. They were grown in Dulbecco's MEM (minimum essential medium) supplemented with 10% fetal bovine serum and 50 ug/ml gentamicin.
Stock cytomegalovirus (CMV) was diluted in a series of 10-fold dilutions in the above medium, and […] amounts were added to the wells of the microtiter plates and allowed to absorb virus for 90 minutes at 37 °C.
Unabsorbed virus was removed by aspiration and 0.5 ml of medium containing dilutions of drug was added to duplicate wells at each concentration of virus.
After incubating for 5 days, fresh medium was added to each well, no additional drug being included, and the plates were scored for cytopathic effects the next day. The viruses produce characteristic enlarged rounded cells in a cellular background that is completely devoid of such cells.
The data were expressed as the reciprocal of the greatest dilution producing any of the characteristic rounded cells (the "titer"), and the percent inhibition was calculated by comparing the experimental titer with the control titer, with intermediate results interpreted as those of Experiment la(a).
The procedure described for Experiment la(j) was followed with cytomegalovirus (CMV) substituted for MAB to HSV-1.

The mark [2] stands for this setting: 1000 µM down to 10 µM, third experiment (Figs. 7 and 8).

Turning to `CC(C)=CCNc1ncnc2c1ncn2[C@@H]1O[C@H](CO)[C@@H](O)[C@H]1O` [IPA, N^6-(Δ^2-isopentenyl) adenosine], the entries for the “Activity, AM in cell lines” value with L donovani and in the experiment on L major/L mexicana were “-” and “+”, respectively. In the experiment with T lymphocytes (10 µM, third experiment), the T lymphocyte responsiveness result is listed as “Increased”. The T lymphocyte function result in the experiment on T lymphocytes (setting [2]) was “reductions”. For the same compound, the T lymphocyte proliferation result is given as “No effect or an increase” with T lymphocytes (0.1 - 10 µM, first experiment); “No appreciable reduction” with T lymphocytes (30 down to 10 u.M, second experiment (Figs. 3 and 4)). Further, the “reduction in T lymphocyte function” value in the experiment with T lymphocytes (30 -35 u.M, third experiment) is on record as approximately 25%. The “Proliferative activity of T lymphocytes, change” value with T lymphocytes (30 u.M, first experiment) is listed as 25%. The “T lymphocytes' abilities to proliferate” value with T lymphocytes (100 u.M or greater, first experiment (Figs. 1 and 2)) was “reduction”. Moreover, the B lymphocyte responsiveness entry with B lymphocytes (10 µM, third experiment) is on record as “Increased”. In addition, in the experiment with B lymphocytes (setting [2]), the B lymphocyte function result is “reductions”. In the experiment on B lymphocytes (0.1 - 10 µM, first experiment), the B lymphocyte proliferation result is given as “No effect or an increase”. The “reduction in B lymphocyte function” value with B lymphocytes (30 -35 u.M, third experiment) is on record as approximately 25%. Besides, the “reduction of B lymphocyte proliferation” value in the experiment on B lymphocytes (between the 30 -10 u.M concentration levels, second experiment, approximate) is given as 30 -50%. Besides, the “inhibition of HIV-1 production” value in the experiment with HIV-1 is listed as “more than five log inhibition”. Further, in experiment [1], the “T and B lymphocyte competence” value is on record as “major rapid recovery”. Further, the “levels of cytomegilovirus in cells in-vitro” value with cytomegilovirus is given as “reduces”.
